Test results reported in publication PMC11942890, “Identification of a Novel NPC1L1 Inhibitor from Danshen and Its Role in Nonalcoholic Fatty Liver Disease” (International Journal of Molecular Sciences, 2025).

Key:
[1] = biological target: T1, Niemann-Pick C1-like 1 (NPC1L1) (Homo sapiens, UniProt Q9UHC9); experiment: reference inhibitor; NPC1L1 inhibition in hL1-Caco2 cells (NBD-cholesterol uptake); assay type: cell-based
T1 construct: hNPC1L1 CDS (NM_001101648.2) with 3 × Flag tag at the 3′ end, stably expressed in Caco2 cells (hL1-Caco2)

[2] = biological target: T1, Niemann-Pick C1-like 1 (NPC1L1); experiment: NBD-cholesterol uptake inhibition in hL1-Caco2 cells stably expressing human NPC1L1; assay type: cell-based

T1 sequence (Q9UHC9 other isoform, or with tags, fused parts or gaps): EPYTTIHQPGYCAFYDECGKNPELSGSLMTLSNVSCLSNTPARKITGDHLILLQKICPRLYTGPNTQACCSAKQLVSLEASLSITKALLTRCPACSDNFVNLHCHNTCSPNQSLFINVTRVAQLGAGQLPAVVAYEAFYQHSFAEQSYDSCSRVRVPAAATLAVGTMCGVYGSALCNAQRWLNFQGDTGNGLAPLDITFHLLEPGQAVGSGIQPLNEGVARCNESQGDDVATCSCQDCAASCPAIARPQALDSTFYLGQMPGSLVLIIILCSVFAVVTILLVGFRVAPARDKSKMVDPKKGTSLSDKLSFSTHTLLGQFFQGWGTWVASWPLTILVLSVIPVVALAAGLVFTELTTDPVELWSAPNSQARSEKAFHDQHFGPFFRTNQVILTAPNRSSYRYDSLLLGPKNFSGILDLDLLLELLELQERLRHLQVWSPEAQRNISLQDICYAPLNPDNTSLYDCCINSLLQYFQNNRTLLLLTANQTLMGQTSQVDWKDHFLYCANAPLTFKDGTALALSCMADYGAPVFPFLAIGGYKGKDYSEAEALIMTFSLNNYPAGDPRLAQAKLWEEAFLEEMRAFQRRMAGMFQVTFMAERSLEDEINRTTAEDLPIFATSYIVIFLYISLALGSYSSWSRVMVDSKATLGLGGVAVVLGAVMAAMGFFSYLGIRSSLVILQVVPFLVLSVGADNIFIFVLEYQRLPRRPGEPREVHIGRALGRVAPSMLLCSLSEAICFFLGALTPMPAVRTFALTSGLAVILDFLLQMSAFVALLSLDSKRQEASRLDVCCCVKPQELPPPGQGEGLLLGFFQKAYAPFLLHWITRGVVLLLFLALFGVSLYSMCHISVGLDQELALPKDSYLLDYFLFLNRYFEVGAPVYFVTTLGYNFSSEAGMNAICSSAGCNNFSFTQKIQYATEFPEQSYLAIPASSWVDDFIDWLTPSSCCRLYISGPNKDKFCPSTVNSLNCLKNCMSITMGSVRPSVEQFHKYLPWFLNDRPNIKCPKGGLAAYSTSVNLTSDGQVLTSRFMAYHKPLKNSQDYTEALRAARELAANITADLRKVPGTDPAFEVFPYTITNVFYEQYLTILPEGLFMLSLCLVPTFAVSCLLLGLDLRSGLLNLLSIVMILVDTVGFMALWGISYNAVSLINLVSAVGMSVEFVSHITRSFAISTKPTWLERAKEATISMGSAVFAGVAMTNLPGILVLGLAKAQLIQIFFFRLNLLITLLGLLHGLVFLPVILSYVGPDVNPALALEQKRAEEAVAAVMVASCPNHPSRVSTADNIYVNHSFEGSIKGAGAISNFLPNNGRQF

O=C1[C@H](CC[C@H](O)c2ccc(F)cc2)[C@@H](c2ccc(O)cc2)N1c1ccc(F)cc1 [ezetimibe]
IC50 [1]: 0.35 µM

C[C@H]1COC2=C1C(=O)C(=O)c1c2ccc2c1CCCC2(C)C [F1-1, cryptotanshinone]
IC50 [2]: 12.3 µM
